# Test results reported in paper PMC4239642, “trans-Acting Arginine Residues in the AAA+ Chaperone ClpB Allosterically Regulate the Activity through Inter- and Intradomain Communication” (The Journal of Biological Chemistry, 2014).
# Like-named read-outs stand apart in the source and are kept apart here.
# Columns and labels:
# ClpB NBD1-M [1] = biological target: T1, ClpB NBD1-M (Thermus thermophilus, UniProt Q9RA63, R322A/R323A); assay: fluorescence displacement titration against MANT-dADP; assay type: binding; conditions: 2 µM protein, 50 mM Tris/HCl pH 7.5, 50 mM KCl, 5 mM MgCl2, 2 mM EDTA, 25 °C
# T1 construct: expressed in E. coli BL21 (DE3) RIL; monomer/dimer equilibrium for the arginine mutants
# Excerpt: (§1) fluorescence displacement titration against MANT-dADP on ClpB NBD1-M
# ClpB NBD1-M [2] = biological target: T2, ClpB NBD1-M (Thermus thermophilus, UniProt Q9RA63, R323A); assay: as above; assay type: binding; conditions: 2 µM protein, 50 mM Tris/HCl pH 7.5, 50 mM KCl, 5 mM MgCl2, 2 mM EDTA, 25 °C
# T2 construct: expressed in E. coli BL21 (DE3) RIL; monomer/dimer equilibrium for the arginine mutants
# Excerpt: as §1
# ClpB NBD1-M [3] = biological target: T3, ClpB NBD1-M (Thermus thermophilus, UniProt Q9RA63, R322A); assay: as above; assay type: binding; conditions: 2 µM protein, 50 mM Tris/HCl pH 7.5, 50 mM KCl, 5 mM MgCl2, 2 mM EDTA, 25 °C
# T3 construct: expressed in E. coli BL21 (DE3) RIL; monomer/dimer equilibrium for the arginine mutants
# Excerpt: as §1
# [4] = biological target: T4, ClpB NBD1-M dimer with P221C/M394C disulfide crosslink (Thermus thermophilus, UniProt Q9RA63, P221C/M394C); assay: as above; assay type: binding; conditions: 2 µM protein, 50 mM Tris/HCl pH 7.5, 50 mM KCl, 5 mM MgCl2, 2 mM EDTA, 25 °C
# T4 construct: NBD1-M (residues 141-534) covalent dimer linked by intermolecular disulfide between P221C of one subunit and M394C of the other; expressed in E. coli BL21 (DE3) RIL; one cross-linked and one free site; associates to tetramers with ATP
# Excerpt: (§2) fluorescence displacement titration against MANT-dADP on ClpB NBD1-M dimer with P221C/M394C disulfide crosslink
# [5] = biological target: T4, ClpB NBD1-M dimer with P221C/M394C disulfide crosslink; assay: coupled colorimetric ATPase assay, Hill equation fit; assay type: biochemical; conditions: 5 µM protein (monomer units); 50 mM Tris/HCl pH 7.5, 100 mM KCl, 10 mM MgCl2, 2 mM EDTA, 25 °C; kcat per monomer
# Excerpt: coupled colorimetric ATPase assay, Hill equation fit on ClpB NBD1-M dimer with P221C/M394C disulfide crosslink
# [6] = biological target: T5, ClpB NBD1-M dimer with P221C/M394C disulfide crosslink (Thermus thermophilus, UniProt Q9RA63, P221C/M394C, form not given); assay: fluorescence displacement titration against MANT-dADP; assay type: binding; conditions: read-out: KD(ATP); 2 µM protein; 50 mM Tris/HCl pH 7.5, 50 mM KCl, 5 mM MgCl2, 2 mM EDTA, 25 °C; ATP-regenerating system (phosphoenolpyruvate, pyruvate kinase)
# T5 construct: NBD1-M (residues 141-534) covalent dimer linked by intermolecular disulfide between P221C of one subunit and M394C of the other; expressed in E. coli BL21 (DE3) RIL; one cross-linked and one free site; associates to tetramers with ATP
# Excerpt: as §2
# [7] = biological target: T6, ClpB NBD1-M dimer with P221C/M394C disulfide crosslink (Thermus thermophilus, UniProt Q9RA63, M394C/P221C); assay: stopped-flow FRET kinetics (koff/kon); assay type: binding; conditions: read-out: KD "free"
# T6 construct: NBD1-M (residues 141-534) covalent dimer linked by intermolecular disulfide between P221C of one subunit and M394C of the other; expressed in E. coli BL21 (DE3) RIL; one cross-linked and one free site; associates to tetramers with ATP
# Excerpt: stopped-flow FRET kinetics (koff/kon) on ClpB NBD1-M dimer with P221C/M394C disulfide crosslink
# ClpB NBD1-M [8] = biological target: T1, ClpB NBD1-M; assay: stopped-flow FRET kinetics (koff/kon); assay type: binding
# Excerpt: (§3) stopped-flow FRET kinetics (koff/kon) on ClpB NBD1-M
# ClpB NBD1-M [9] = biological target: T2, ClpB NBD1-M; assay: stopped-flow FRET kinetics (koff/kon); assay type: binding
# Excerpt: as §3
# ClpB NBD1-M [10] = biological target: T3, ClpB NBD1-M; assay: stopped-flow FRET kinetics (koff/kon); assay type: binding
# Excerpt: as §3
# [11] = read-out: KD(ATP), ATP-regenerating system (phosphoenolpyruvate, pyruvate kinase)
# T2 sequence (Q9RA63 141-534 R323A): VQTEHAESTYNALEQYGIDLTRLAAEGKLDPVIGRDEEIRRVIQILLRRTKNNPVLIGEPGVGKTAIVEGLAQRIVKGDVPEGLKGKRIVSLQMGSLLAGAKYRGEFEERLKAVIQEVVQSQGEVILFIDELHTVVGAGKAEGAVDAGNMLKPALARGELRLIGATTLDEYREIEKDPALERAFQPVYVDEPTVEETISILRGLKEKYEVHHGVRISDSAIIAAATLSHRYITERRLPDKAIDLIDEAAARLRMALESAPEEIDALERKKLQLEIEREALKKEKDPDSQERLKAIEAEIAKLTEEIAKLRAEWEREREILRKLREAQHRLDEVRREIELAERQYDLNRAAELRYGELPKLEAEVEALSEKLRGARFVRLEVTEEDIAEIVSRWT
# T3 sequence (Q9RA63 141-534 R322A): as the sequence (Q9RA63 141-534 R323A) above, with R182A, A183R counted along it
# T4 sequence (Q9RA63 141-534 M394C): as the sequence (Q9RA63 141-534 R323A) above, with A183R, M254C counted along it
# T4 sequence (Q9RA63 141-534 P221C): as the sequence (Q9RA63 141-534 R323A) above, with P81C, A183R counted along it
# T1 sequence (Q9RA63 141-534 R322A/R323A): as the sequence (Q9RA63 141-534 R323A) above, with R182A counted along it
# T5 sequence (Q9RA63 141-534 M394C): as the sequence (Q9RA63 141-534 R323A) above, with A183R, M254C counted along it
# T5 sequence (Q9RA63 141-534 P221C): as the sequence (Q9RA63 141-534 R323A) above, with P81C, A183R counted along it
# T6 sequence (Q9RA63 141-534 M394C): as the sequence (Q9RA63 141-534 R323A) above, with A183R, M254C counted along it
# T6 sequence (Q9RA63 141-534 P221C): as the sequence (Q9RA63 141-534 R323A) above, with P81C, A183R counted along it
compound,measurement,setting,value
Nc1ncnc2c1ncn2[C@@H]1O[C@H](COP(=O)(O)OP(=O)(O)O)[C@@H](O)[C@H]1O [ADP],Kd,ClpB NBD1-M [1]; read-out: KD(ADP),0.0093 ± 0.0007 mM
same,Kd,ClpB NBD1-M [2]; read-out: KD(ADP),10.2 ± 0.6 µM
same,Kd,ClpB NBD1-M [3]; read-out: KD(ADP),10.7 ± 0.6 µM
same,Kd,[4]; read-out: KD(ADP),1.3 ± 0.1 µM
Nc1ncnc2c1ncn2[C@@H]1O[C@H](COP(=O)(O)OP(=O)(O)OP(=O)(O)O)[C@@H](O)[C@H]1O [ATP],Kd,ClpB NBD1-M [1]; [11],2.05 ± 0.18 mM
same,Kd,ClpB NBD1-M [2]; [11],1040 ± 120 µM
same,Kd,ClpB NBD1-M [3]; [11],1670 ± 160 µM
same,Km,[5],162 ± 4 µM
same,Kd,[4]; [11],96 ± 11 µM
same,Kd,[6],438 ± 17 µM
"CNc1ccccc1C(=O)O[C@H]1C[C@H](n2cnc3c(N)ncnc32)O[C@@H]1COP(=O)(O)OP(=O)(O)O [MANT-dADP, 2′-deoxy-3′-O-(N′-methylanthraniloyl)adenosine-5′-O-diphosphate]",Kd,[7],670 ± 40 nM
same,Kd,ClpB NBD1-M [8],6.9 ± 0.2 µM
same,Kd,ClpB NBD1-M [9],6.7 ± 0.2 µM
same,Kd,ClpB NBD1-M [10],8.3 ± 0.4 µM
